Source: patent US20090227606A1, “Methods for Preventing or Treating Acute and Chronic Pain” (priority 2006, published 2009)
“Also recorded” adds a separate entry of the source.

Assays:
GLT-1 mRNA = assay: Real Time RT-PCR of ipsilateral lumbar spinal cord, GLT-1 mRNA; format: in vivo, rat; settings: daily intrathecal
Method: Tissue was collected from 4-5 rats/group on postoperative days 4 or 12. In order to obtain both mRNA and protein from the same tissue sample, the L5 region of the spinal cord (ipsilateral to the injury), was isolated and placed in PBS supplemented with protease inhibitor cocktail (1:1000, Sigma Chemical Co., St. Louis, Mo.) and RNase inhibitor (0.75 U/μL Ambion, Austin, Tex.). Samples were sonicated in five one-second bursts at half-maximal power, centrifuged at 6500 rpm for 15 minutes at 4° C. Protein-containing supernatants were collected and stored at −80° C. until further processing by Western blot analysis. […]
Real time RT-PCR reactions were carried out in a total reaction volume of 25 μL containing a final concentration of 1.5 U Platinum Taq DNA polymerase (Invitrogen Corporation, Carlsbad, Calif.); 20 mM Tris HCl (pH 8.4); 50 mM KCl; 3 mM MgCl2; 200 μM dGTP, dCTP, and dATP; 400 μM dUTP and 1 U of UDG (uracyl DNA glycosylase); 900 nM of forward and reverse primers; 300 nM Taqman probe; and 5 μL of a 10-fold dilution of cDNA (50 ng) from the RT step. The iCycler™ Multicolor Real-Time PCR detection system (Bio-Rad, Hercules, Calif.) was used to quantify PCR product. […] The relative fold change from control was then expressed by calculation of 2^−ΔΔC^T for each sample and the results are expressed as the group mean fold change±SEM.

GLT-1 = assay: Western blot of ipsilateral lumbar spinal cord, GLT-1 protein; format: in vivo, rat; settings: day 12 post-transection
Method: Tissue was collected from 4-5 rats/group on postoperative days 4 or 12. In order to obtain both mRNA and protein from the same tissue sample, the L5 region of the spinal cord (ipsilateral to the injury), was isolated and placed in PBS supplemented with protease inhibitor cocktail (1:1000, Sigma Chemical Co., St. Louis, Mo.) and RNase inhibitor (0.75 U/μL Ambion, Austin, Tex.). Samples were sonicated in five one-second bursts at half-maximal power, centrifuged at 6500 rpm for 15 minutes at 4° C. Protein-containing supernatants were collected and stored at −80° C. until further processing by Western blot analysis. The pellet was treated with TRIzol reagent (Invitrogen, Carlsbad, Calif.) for the extraction of total RNA according to the manufacturer's specifications.
Protein obtained from L5 lumbar spinal cord was quantified using the Lowry method (DC assay, Bio-Rad, Hercules, Calif.). Forty micrograms of protein and standard protein markers were subjected to SDS polyacrylamide gel electrophoresis (7.5% gel, Bio-Rad, Hercules, Calif.) and id transferred to polyvinylidene difluoride (PVDF, Bio-Rad, Hercules, Calif.) filters. Nonspecific binding was blocked by incubation with 5% milk/PBS-T at room temperature for 1 hour followed by incubation overnight at 4° C. with monoclonal guinea pig anti-GLT-1 or guinea pig anti-GLAST (1:2500, Chemicon). […]

[1] = system: L5 spinal nerve transected mice; assay: Mechanical allodynia after L5 spinal nerve transection in eGFP-GLT-1/DsRed-GLAST transgenic mice; format: in vivo, mouse; settings: for first day on which inhibition of mechanical allodynia was evident: 10 mg/kg i.p. daily
Method: In addition to studies using a rat model of pain for examining the role of glutamate transporters in the therapeutic response (analgesic) of propentofylline treatment, studies were also performed in a double transgenic reporter mouse line that expressed eGFP-GLT-1/DsRed-GLAST. Use of the transgenic mouse model further defined the effect of propentofylline on glutamate transporters, GLT-1 and GLAST. The animals were injected intraperitoneally with 10 mg/kg propentofylline in sterile saline or saline vehicle alone (n=5 to 8 per group). The first injections were administered one hour prior to L5 spinal nerve transection and continued daily in the evening (between 5 and 7 PM) until day 12 post-transection. Mice received either an L5 spinal nerve transection or sham surgery on day 0. The development of mechanical allodynia was monitored on days 1, 3, 5, 7, 9 and 12 as described for rats previously. The monitoring was performed in the morning at approximately 15 hours post-propentofylline or saline injection. Mice were transcardially perfused on day 12 post-transection, spinal cords were removed, and the tissue was processed for immunohistochemistry.
Transgenic mice on a C57B1/6 background were created according to the methods previously described (Regan et al. 2006. J. Neuroscience, in press). Briefly, in order to determine where in the central nervous system GLAST is expressed, transgenic mice were created using a bacterial artificial chromosome containing the GLAST gene plus 18 kb of DNA upstream of the first exon and 60 kb downstream of the last exon. DsRed cDNA was inserted into the first exon to allow expression of DsRed instead of GLAST when the promoter is active. Similarly, in order to investigate the distribution of GLT-1, transgenic mice expressing GLT-1 with eGFP running from the promoter were also created. These two types of transgenic mice were crossed and the resultant double transgenic eGFP-GLT-1/DsRed-GLAST mice were used in the experiments at 8 to 10 weeks of age.

`CCCn1cnc2c1c(=O)n(CCCCC(C)=O)c(=O)n2C` [propentofylline] was tested, and the “GLT-1 mRNA in lumbar spinal cord” value (GLT-1 mRNA; day 4 post-transection) was “enhanced; also recorded: significantly increased levels of GLT-1 mRNA”, the “GLT-1 mRNA in lumbar spinal cord” value (GLT-1 mRNA; day 12 post-transection) was “enhanced; also recorded: significantly increased levels of GLT-1 mRNA” and the “GLT-1 protein compared to L5 transection alone” value (GLT-1) was “reversed with propentofylline treatment; also recorded: significantly elevated”. For the same molecule, the “first day on which inhibition of mechanical allodynia was evident” value ([1]; 0.008 g filament) was 3 days, the “mechanical allodynia (0.008 g and 0.02 g von Frey filaments)” value ([1]; 10 mg/kg intraperitoneally daily, from one hour prior to transection) was “significant decrease in mechanical allodynia; also recorded: robustly inhibited the development of mechanical allodynia in mice; also recorded: remained similar to the sham control mice at every time point for both filaments” and the “first day on which inhibition of mechanical allodynia was evident” value ([1]; 0.02 g filament) was 1 days.
